Test system: TSBA, C4, FGF-19, serum autotaxin and LDL cholesterol
Experiment: GLIMMER Phase 2b study: pharmacodynamic serum biomarkers
Format: in vivo, human
Source text: The following biomarkers are useful in clinical investigations relating to the treatment of pruritus, particularly cholestatic pruritus:
Serum 7-α-hydroxy-4-cholesten-3-one (C4)
C4 is an intermediate in the biochemical synthesis of bile acids from cholesterol. C4 concentrations reflect the activity of the bile acid synthetic pathway.
FGF-19 a protein which functions as a hormone, regulating bile acid synthesis, with effects on glucose and lipid metabolism.
Autotaxin is the enzyme that produces lysophosphatidic acid (LPA) which is found to correlate with itch intensity.
LDL one of the five major groups of lipoprotein which transport all fat molecules around the body in the extracellular water.
TSBA are metabolized in the liver and can serve as a marker for normal liver function.
Measurement of Level of Pharmacodynamic Biomarkers
Total serum bile acids (TSBA) (FIG. 10)
Serum 7-α-hydroxy-4-cholesten-3-one (C4) (FIG. 2)
Serum fibroblast growth factor-19 (FGF-19) (FIG. 7)
Serum LDL (low-density lipoprotein) cholesterol (FIG. 9)
Further analysis of biomarker parameters provided clear indication of pharmacological action with decreases in total serum bile acids (TSBA), increases in the serum bile acid precursor C4 (7-a-hydroxy-4-cholesten-3-one) and corresponding mean decreases in fibroblast growth factor 19 (FGF-19), a hormone that regulates bile acid synthesis. […] Reductions in FGF-19 and autotaxin were also observed across most treatment groups during the main study period (excluding placebo for FGF-19 and linerixibat 20 mg QD for autotaxin) (FIG. 7, FIG. 8).

Question: With `CCCC[C@]1(CC)CS(=O)(=O)c2cc(CNC(CC(=O)O)CC(=O)O)c(OC)cc2[C@@H](c2ccccc2)N1` [linerixibat] as the compound, how does the “FGF-19 mean change from baseline compared with placebo (ANCOVA)” value (40 mg BID) read?
Answer: statistically significant reductions

Question: What about the “serum C4 increase” value (40 mg BID and 90 mg BID doses) of the same compound?
Answer: largest increase

Question: And the “serum autotaxin concentration compared with placebo” value (40 mg BID, Week 16)?
Answer: significantly decreased

Question: And the “C4 LS mean ratio increases from baseline (MMRM)” value (180 mg QD and both BID treatment groups)?
Answer: largest increases

Question: And the “LDL cholesterol compared to the placebo group” value (Week 16, all linerixibat treatment groups with the exception of 20 mg QD)?
Answer: significantly reduced

Question: And the “fibroblast growth factor-19 (FGF-19) reduction” value (two BID doses of 40 mg and 90 mg)?
Answer: greatest reduction

Question: And the “total serum bile acids (TSBA) compared with baseline (MMRM)” value (week 16, 40 mg and 90 mg BID)?
Answer: statistically significant decrease

From patent US20230414634A1, “METHODS FOR TREATING CHOLESTATIC PRURITUS” (GlaxoSmithKline Intellectual Property (No.2) Limited, priority 2020, published 2023)
